According to patent publication US7435837B2, “Dihydrobenzofuranyl alkanamine derivatives and methods for using same” (Wyeth, priority 2003, dated 2008):
Counter-ions that a name gives are not always drawn.

SMILES | melting point
COc1cc2c(c(C(C)(C)C)c1)OC(CN)C2 (racemic) (as salt: hydrochloride) [Example 13, (±)-(7-tert-butyl-5-methoxy-2,3-dihydro-1-benzofuran-2-yl)methylamine] | 174 to 176 °C
Cc1ccccc1-c1cccc2c1OC(CN)C2 (single isomer, unassigned; (+)) (as salt: hydrochloride) [Example 48, (+)-1-[7-(2-methylphenyl)-2,3-dihydro-1-benzofuran-2-yl]methanamine] | 211 to 212 °C
CC(C)c1cccc2c1OC(CN)C2 (racemic) (as salt: hydrochloride) [Example 18, (±)-(7-isopropyl-2,3-dihydro-1-benzofuran-2-yl)methylamine] | 160 to 164 °C (dec.)
CC(C)(C)c1cccc2c1OC(CN)C2 (single isomer, unassigned; (+)) (as salt: hydrochloride) [Example 26, (+)-1-(7-tert-butyl-2,3-dihydro-1-benzofuran-2-yl)methanamine] | 177 to 179 °C
CC(C)(C)c1cc(Cl)cc2c1OC(CN)C2 (racemic) (as salt: hydrochloride) [Example 27, (±)-1-(7-tert-butyl-5-chloro-2,3-dihydro-1-benzofuran-2-yl)methanamine] | 229 to 231 °C
NCC1Cc2cccc(Cc3ccccc3)c2O1 (racemic) (as salt: hydrochloride) [Example 15, (±)-1-(7-benzyl-2,3-dihydro-1-benzofuran-2-yl)methanamine] | 107 to 111 °C (dec.)
COc1ccc2c(c1)OC(CN)C2 (racemic) (as salt: hydrochloride) [Example 30, (±)-1-(6-methoxy-2,3-dihydro-1-benzofuran-2-yl)methanamine] | > 220 °C
NCC1Cc2cccc(-c3ccccc3F)c2O1 (single isomer, unassigned; (-)) (as salt: hydrochloride) [Example 52, (−)-1-[7-(2-fluorophenyl)-2,3-dihydro-1-benzofuran-2-yl]methanamine] | 224 to 225 °C
NCC1Cc2cccc(-c3c(Cl)cccc3Cl)c2O1 (racemic) (as salt: hydrochloride) [Example 140, (±)-1-[7-(2,6-dichlorophenyl)-2,3-dihydro-1-benzofuran-2-yl]methanamine] | 206 to 208 °C
COc1cccc(-c2cccc3c2OC(CN)C3)c1 (racemic) (as salt: hydrochloride) [Example 68, (±)-1-[7-(3-methoxyphenyl)-2,3-dihydro-1-benzofuran-2-yl]methanamine] | 152 to 154 °C
Cc1cccc(C)c1-c1cccc2c1OC(CN)C2 (racemic) (as salt: hydrochloride) [Example 56, (±)-1-[7-(2,6-dimethylphenyl)-2,3-dihydro-1-benzofuran-2-yl]methanamine] | > 250 °C
CC(C)c1cccc2c1OC(CN)C2 (single isomer, unassigned; (-)) (as salt: hydrochloride) [Example 19, (−)-(7-isopropyl-2,3-dihydro-1-benzofuran-2-yl)methylamine] | 176 to 178 °C
NCC1Cc2cccc(-c3ccccc3F)c2O1 (racemic) (as salt: hydrochloride) [Example 50, (±)-1-[7-(2-fluorophenyl)-2,3-dihydro-1-benzofuran-2-yl]methanamine] | 244 to 246 °C
NCC1Cc2cc(Cl)cc(-c3ccccc3)c2O1 (single isomer, unassigned; (+)) (as salt: hydrobromid) [Example 85, (+)-1-(5-chloro-7-phenyl-2,3-dihydro-1-benzofuran-2-yl)methanamine] | 201 to 203 °C
Cc1ccccc1-c1cc(F)c(F)c2c1OC(CN)C2 (racemic) (as salt: hydrochloride) [Example 110, (±)-1-[4,5-difluoro-7-(2-methylphenyl)-2,3-dihydro-1-benzofuran-2-yl]methanamine] | > 224 °C
